From patent publication US12564600B2, “System for enhancing therapeutic compliance of the anti-cancer compound E7766” (Eisai R&D Management Co., Ltd., priority 2019, dated 2026)
Converted amounts (≈) assume the structure as drawn.

Columns and labels:
[1] = Physicochemical properties and ECCS classification of Compound 1
OATP1B1/1B3 [2] = assay: Pharmacokinetics in humanized OATP1B1/1B3 mice with or without rifampin co-dose; assay type: in vivo; conditions: 0.5 mg/kg IV, rifampin 30 mg/kg
Description: Age-matched Oatp1a/1b cluster-knockout, OATP1B1- or OATP1B3-knockin mice humanized on the Oatp1a/1b-knockout background, and wild-type FVB male mice were purchased from Taconic Biosciences (Hudson, N.Y., USA). Mice were between 8 and 10 weeks of age (22-34 g) at the time of study. Compound 1 was administered at a dose of 0.5 mg/kg coadministered with either vehicle or rifampin (30 mg/kg). Blood and liver samples were collected at 0.083, 0.25, 0.5, 1, 1.5, 3, 6 hours. Plasma was isolated from blood samples by centrifugation. All samples were stored at −80° C. until bioanalysis.
Compound 1 was dosed via intravenous administration to WT, humanized, and KO mice. Blood, urine, and feces were collected from the animals over 6 hours. Blood spots were collected and expelled FTA™ DMPK-B DBS Card (GE Healthcare, Life Sciences, Whatman™) within the appropriate sample circle. Pharmacokinetics of Compound 1 in WT animals was also assessed after co-administration with rifampin. Liver samples were also collected from WT animals and frozen until analysis. All samples were analyzed using LC-MS/MS and the pharmacokinetics parameters of Compound 1 were determined with Phoenix WinNonlin using non-compartmental analysis.
FIG. 2A through 2C show an in vivo PK profile and elimination of Compound 1 with and without a co-dose of the Oatp/OATP inhibitor Rifampin in different mouse models.

OATP1B1/1B3 [3] = assay: Simcyp PBPK modeling of OATP1Bs-mediated drug-drug interaction; design: species or system human; conditions: Simcyp input parameter
Description: PBPK modeling was conducted using the Simcyp™ in silico bottom-up PBPK modeling.
Simcyp™ software Version 17.0.0 was used. Simcyp™ parameters are shown below in Table 3.

In the case of `O=[P@]1(S)OC[C@H]2O[C@@H]3[C@H](F)[C@@H]2O[P@](=O)(S)OC[C@H]2O[C@H]([C@H](F)[C@@H]2O1)n1cnc2c(ncnc21)NC/C=C/CNc1ncnc2c1ncn23` [Compound 1], the solubility [1] is reported as 150 µM (≈ 112 µg/mL), the logD ([1]; read-out: measured Log D) is reported as 1.31 and the pKa ([1]; read-out: measured pKa) is reported as 3.41. For the same compound, the “increase in plasma concentration/exposure in the presence of rifampin” value (OATP1B1/1B3 [2]) was 4.5 fold and the “CL R” value (OATP1B1/1B3 [3]) was 2.000 L/h.
